Measured values: PubChem BioAssay (NCI)
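Test compounds were applied to cells in 96-well plates for 48 hours at 5 doses. GI50 = concentration required for 50% inhibition of growth. TGI denotes the concentration required for complete inhibition of growth.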

How the values were obtained:
Assay in all cases: NCI tumour cell line growth inhibition, 48 h
[1] = tested on: MOLT-4 leukemia
[2] = tested on: UACC-62 melanoma
[3] = tested on: OVCAR-5 ovarian
[4] = tested on: NCI-H23 lung
[5] = tested on: HCC-2998 colon
[6] = tested on: BT-549 breast
[7] = tested on: CCRF-CEM leukemia
[8] = tested on: MCF7 breast
[9] = tested on: SF-295 CNS
[10] = tested on: IGROV1 ovarian
[11] = tested on: MDA-MB-435
[12] = tested on: HOP-62 NSCLC
[13] = tested on: A549 NSCLC
[14] = tested on: SR leukemia
[15] = tested on: HL-60(TB) leukemia
[16] = tested on: SF-268 CNS
[17] = tested on: OVCAR-8 ovarian
[18] = tested on: T-47D breast
[19] = tested on: SW-620 colon
[20] = tested on: EKVX NSCLC
[21] = tested on: SK-MEL-28 melanoma
[22] = tested on: SK-OV-3 ovarian
[23] = tested on: UACC-257 melanoma
[24] = tested on: ACHN renal
[25] = tested on: OVCAR-3 ovarian
[26] = tested on: MALME-3M melanoma
[27] = tested on: NCI-H460 lung
[28] = tested on: DU-145 prostate
[29] = tested on: SNB-19 CNS
[30] = tested on: 786-0 renal
[31] = tested on: HCT-15 colon
[32] = tested on: RXF 393 renal
[33] = tested on: U251 CNS
[34] = tested on: HS 578T breast
[35] = tested on: SF-539 CNS
[36] = tested on: LOX IMVI melanoma
[37] = tested on: NCI-H522 lung
[38] = tested on: PC-3 prostate
[39] = tested on: K-562 leukemia
[40] = tested on: MDA-MB-231 breast
[41] = tested on: HCT-116 colon
[42] = tested on: CAKI-1 renal
[43] = tested on: OVCAR-4 ovarian
[44] = tested on: KM12 colon
[45] = tested on: M14 melanoma
[46] = tested on: COLO 205 colon
[47] = tested on: SK-MEL-5 melanoma
[48] = tested on: HT29 colon
[49] = tested on: HOP-92 NSCLC
[50] = tested on: SK-MEL-2 melanoma
[51] = tested on: MDA-MB-468 breast
[52] = tested on: TK-10 renal
[53] = tested on: RPMI-8226 leukemia
[54] = tested on: SN12C renal
[55] = tested on: NCI-H226 lung
[56] = tested on: UO-31 renal
[57] = tested on: A498 renal
[58] = tested on: NCI/ADR-RES ovarian

Work on `COc1ccc(C(=O)/C=C/c2cccc(Cl)c2)cc1S(N)(=O)=O` yielded a GI50 [1] of 2.38 µM, a TGI [1] of 6.15 µM and a GI50 [2] of 1.98 µM. For the same compound, the TGI [2] was 5.51 µM, the GI50 [3] was 1.87 µM and the TGI [3] was 4.76 µM. It also gave a GI50 [4] of 1.78 µM, a TGI [4] of 3.5 µM and a GI50 [5] of 1.6 µM. It also gave a TGI [5] of 3.06 µM, a GI50 [6] of 1.65 µM and a TGI [6] of 4.18 µM. The GI50 [7] was 3.11 µM, the TGI [7] was 8.69 µM and the GI50 [8] was 1.97 µM. The TGI [8] was 6.99 µM, the GI50 [9] was 2.24 µM and the TGI [9] was 7.94 µM. The GI50 [10] was 2.48 µM, the TGI [10] was 9.06 µM and the GI50 [11] was 3.2 µM. It also gave a TGI [11] of 12.1 µM, a GI50 [12] of 2.2 µM and a TGI [12] of 6.43 µM. It also gave a GI50 [13] of 2.5 µM, a TGI [13] of 10.2 µM and a GI50 [14] of 0.848 µM. The TGI [14] was 4.9 µM, the GI50 [15] was 1.9 µM and the TGI [15] was 5.72 µM. The GI50 [16] was 3.27 µM, the TGI [16] was 13 µM and the GI50 [17] was 2.81 µM. The TGI [17] was 11.7 µM, the GI50 [18] was 2.14 µM and the TGI [18] was 6.68 µM. For the same compound, the GI50 [19] was 1.68 µM, the TGI [19] was 3.53 µM and the GI50 [20] was 4.16 µM. The TGI [20] was 16.7 µM, the GI50 [21] was 2.78 µM and the TGI [21] was 9.4 µM. The GI50 [22] was 6.24 µM, the TGI [22] was 19.1 µM and the GI50 [23] was 5.53 µM. For the same compound, the TGI [23] was 18.9 µM, the GI50 [24] was 1.75 µM and the TGI [24] was 3.23 µM. The GI50 [25] was 1.55 µM, the TGI [25] was 3.39 µM and the GI50 [26] was 3.56 µM. For the same compound, the TGI [26] was 15.1 µM, the GI50 [27] was 3.34 µM and the TGI [27] was 11.2 µM. For the same compound, the GI50 [28] was 3.52 µM, the TGI [28] was 12.2 µM and the GI50 [29] was 3.13 µM. For the same compound, the TGI [29] was 12.4 µM, the GI50 [30] was 1.57 µM and the TGI [30] was 3.49 µM. The GI50 [31] was 1.14 µM, the TGI [31] was 2.59 µM and the GI50 [32] was 1.55 µM. The TGI [32] was 3.08 µM, the GI50 [33] was 1.36 µM and the TGI [33] was 2.69 µM. For the same compound, the GI50 [34] was 10.7 µM, the TGI [34] was 50.9 µM and the GI50 [35] was 1.75 µM. It also gave a TGI [35] of 3.78 µM, a GI50 [36] of 1.3 µM and a TGI [36] of 2.57 µM. It also gave a GI50 [37] of 1.63 µM, a TGI [37] of 3.22 µM and a GI50 [38] of 2.23 µM. The TGI [38] was 6.18 µM, the GI50 [39] was 2.13 µM and the TGI [39] was over 100 µM. For the same compound, the GI50 [40] was 2.26 µM, the TGI [40] was 5.9 µM and the GI50 [41] was 1.21 µM. The TGI [41] was 2.52 µM, the GI50 [42] was 2.4 µM and the TGI [42] was 9.07 µM. It also gave a GI50 [43] of 3.58 µM, a TGI [43] of 14.3 µM and a GI50 [44] of 1.61 µM. For the same compound, the TGI [44] was 3.75 µM, the GI50 [45] was 2.13 µM and the TGI [45] was 6.93 µM. It also gave a GI50 [46] of 1.81 µM, a TGI [46] of 3.41 µM and a GI50 [47] of 3.18 µM. For the same compound, the TGI [47] was 12.6 µM, the GI50 [48] was 1.7 µM and the TGI [48] was 3.4 µM. It also gave a GI50 [49] of 2.28 µM, a TGI [49] of 18.6 µM and a GI50 [50] of 12.9 µM. The TGI [50] was 26.2 µM, the GI50 [51] was 1.41 µM and the TGI [51] was 2.93 µM. It also gave a GI50 [52] of 2.49 µM, a TGI [52] of 10.5 µM and a GI50 [53] of 2.28 µM. It also gave a TGI [53] of 6.67 µM, a GI50 [54] of 1.56 µM and a TGI [54] of 3.64 µM. The GI50 [55] was 2.83 µM, the TGI [55] was 11.9 µM and the GI50 [56] was 1.29 µM. It also gave a TGI [56] of 2.73 µM, a GI50 [57] of 16.3 µM and a TGI [57] of 30.5 µM. The GI50 [58] was 2.29 µM and the TGI [58] was 6.48 µM.
